Results on five compounds are retold here after patent US11202757B2, “Dry powder compositions for intranasal delivery” (Formulex Pharma Innovations Ltd., priority 2017, dated 2021).

Counter-ions that a name gives are not always drawn.

The series in a line: Particle size analysis (Malvern laser diffraction). Type of series: physicochemical. The settings on record: for size range of the active agent particle population: laser diffraction, active agent population of the composition. As for the experimental part: (§1) The spray-drying process was carried out using the Mini Spray Dryer B-290 of Büchi Labortechnik AG. A magnetic stirrer (Fried Electric) was placed under the receiver (receiving chamber), a magnetic bar of appropriate size was inserted into the receiver, and then the diluent was added. […] Quantification was performed using HPLC and a Dionex HPLC instrument. A FEI Quanta-200 Scanning Electron Microscope (SEM) equipped with an Everhart-Thornley Detector was used to obtain the images of the spray-dried powder. The accelerating voltage of 20 kV was applied to provide magnification from 250 to 10,000 times. In addition, an X-ray Element Analysis Detector (Link ISIS, Oxford Instruments, GB) was used to determine the drug and particle identity and their distribution throughout DPI. Particle size was measured using the Malvern Mastersizer 3000 series based on the Light Diffraction method.
as §1, with “England)” for “GB)”

[1] abbreviates: estimated in the range of 0-40 μm.

As to `C=CCN1CC[C@]23c4c5ccc(O)c4O[C@H]2C(=O)CC[C@@]3(O)[C@H]1C5` [naloxone hydrochloride], the “size range of the active agent particle population” value (from here on “size range”) is on record as 5-30 μm.
The same measure, in the same setting: under `CC(=O)Nc1ccc(O)cc1` [paracetamol] stands 2-30 μm; under `COc1ccc2c3c1O[C@H]1C(=O)CC[C@@]4(O)[C@@H](C2)N(C)CC[C@]314.Cl` [oxycodone hydrochloride], 3-30 μm.
As to `CNS(=O)(=O)Cc1ccc2[nH]cc(CCN(C)C)c2c1` [sumatriptan succinate], the “size range” value is reported as 5-25 μm. For the same compound, under setting [1], the “D(10) of sumatriptan succinate alone” value is 5.2 μm, the “D(50) of sumatriptan succinate alone” value was 11.2 μm, the “D(90) of sumatriptan succinate alone” value was 20.1 μm and the “D(99) of sumatriptan succinate alone” value was 27.1 μm.
With “insulin-sodium chloride: small spherical particles of insulin-sodium chloride in the insulin composition”, the “size range” value is listed as 5-35 μm.
